Laboratory results taken from PubChem BioAssay (NCI).
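Cultured in 96-well plates, cells were exposed to test compound for 48 hours across five concentrations. TGI: concentration producing complete growth inhibition.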

Key:
Assay in all cases: growth of human tumour cells (NCI), 48 h
EKVX NSCLC = tested on: EKVX NSCLC
M14 melanoma = tested on: M14 melanoma
SNB-19 CNS = tested on: SNB-19 CNS
UO-31 renal = tested on: UO-31 renal
RXF 393 renal = tested on: RXF 393 renal
HCT-15 colon = tested on: HCT-15 colon
SR leukemia = tested on: SR leukemia
SW-620 colon = tested on: SW-620 colon
HT29 colon = tested on: HT29 colon
BT-549 breast = tested on: BT-549 breast
TK-10 renal = tested on: TK-10 renal
CAKI-1 renal = tested on: CAKI-1 renal
HCT-116 colon = tested on: HCT-116 colon
MCF7 breast = tested on: MCF7 breast
COLO 205 colon = tested on: COLO 205 colon
NCI/ADR-RES ovarian = tested on: NCI/ADR-RES ovarian
NCI-H460 lung = tested on: NCI-H460 lung
SK-OV-3 ovarian = tested on: SK-OV-3 ovarian
PC-3 prostate = tested on: PC-3 prostate
OVCAR-3 ovarian = tested on: OVCAR-3 ovarian
MDA-N = tested on: MDA-N
NCI-H23 lung = tested on: NCI-H23 lung
OVCAR-8 ovarian = tested on: OVCAR-8 ovarian
IGROV1 ovarian = tested on: IGROV1 ovarian
786-0 renal = tested on: 786-0 renal
MALME-3M melanoma = tested on: MALME-3M melanoma
SF-539 CNS = tested on: SF-539 CNS
UACC-62 melanoma = tested on: UACC-62 melanoma
A549 NSCLC = tested on: A549 NSCLC
A498 renal = tested on: A498 renal
LOX IMVI melanoma = tested on: LOX IMVI melanoma
SK-MEL-2 melanoma = tested on: SK-MEL-2 melanoma
MOLT-4 leukemia = tested on: MOLT-4 leukemia
HL-60(TB) leukemia = tested on: HL-60(TB) leukemia
KM12 colon = tested on: KM12 colon
SF-295 CNS = tested on: SF-295 CNS
SK-MEL-5 melanoma = tested on: SK-MEL-5 melanoma
HS 578T breast = tested on: HS 578T breast
MDA-MB-435 = tested on: MDA-MB-435
CCRF-CEM leukemia = tested on: CCRF-CEM leukemia
HCC-2998 colon = tested on: HCC-2998 colon
SK-MEL-28 melanoma = tested on: SK-MEL-28 melanoma
OVCAR-4 ovarian = tested on: OVCAR-4 ovarian
ACHN renal = tested on: ACHN renal
SN12C renal = tested on: SN12C renal
HOP-92 NSCLC = tested on: HOP-92 NSCLC
U251 CNS = tested on: U251 CNS
MDA-MB-231 breast = tested on: MDA-MB-231 breast
SNB-75 CNS = tested on: SNB-75 CNS
HOP-62 NSCLC = tested on: HOP-62 NSCLC
OVCAR-5 ovarian = tested on: OVCAR-5 ovarian
K-562 leukemia = tested on: K-562 leukemia
UACC-257 melanoma = tested on: UACC-257 melanoma
NCI-H226 lung = tested on: NCI-H226 lung

In the case of `CN(C)c1ccc(/C=N/N=C2\C(=O)Nc3c(Cl)cc(Cl)cc32)cc1`, the TGI (EKVX NSCLC) is reported as over 100 µM, the TGI (M14 melanoma) is reported as over 100 µM and the TGI (SNB-19 CNS) is reported as over 100 µM. The TGI (UO-31 renal) was over 100 µM, the TGI (RXF 393 renal) was over 100 µM and the TGI (HCT-15 colon) was over 100 µM. It also gave a TGI (SR leukemia) of 33 µM, a TGI (SW-620 colon) of over 100 µM and a TGI (HT29 colon) of over 100 µM. For the same compound, the TGI (BT-549 breast) was over 100 µM, the TGI (TK-10 renal) was over 100 µM and the TGI (CAKI-1 renal) was over 100 µM. For the same compound, the TGI (HCT-116 colon) was over 100 µM, the TGI (MCF7 breast) was over 100 µM and the TGI (COLO 205 colon) was over 100 µM. It also gave a TGI (NCI/ADR-RES ovarian) of 89 µM, a TGI (NCI-H460 lung) of over 100 µM and a TGI (SK-OV-3 ovarian) of over 100 µM. The TGI (PC-3 prostate) was over 100 µM, the TGI (OVCAR-3 ovarian) was over 100 µM and the TGI (MDA-N) was 33.8 µM. The TGI (NCI-H23 lung) was over 100 µM, the TGI (OVCAR-8 ovarian) was over 100 µM and the TGI (IGROV1 ovarian) was over 100 µM. For the same compound, the TGI (786-0 renal) was over 100 µM, the TGI (MALME-3M melanoma) was over 100 µM and the TGI (SF-539 CNS) was over 100 µM. For the same compound, the TGI (UACC-62 melanoma) was over 100 µM, the TGI (A549 NSCLC) was over 100 µM and the TGI (A498 renal) was over 100 µM. It also gave a TGI (LOX IMVI melanoma) of over 100 µM, a TGI (SK-MEL-2 melanoma) of over 100 µM and a TGI (MOLT-4 leukemia) of over 100 µM. For the same compound, the TGI (HL-60(TB) leukemia) was over 100 µM, the TGI (KM12 colon) was 36.4 µM and the TGI (SF-295 CNS) was over 100 µM. For the same compound, the TGI (SK-MEL-5 melanoma) was over 100 µM, the TGI (HS 578T breast) was over 100 µM and the TGI (MDA-MB-435) was over 100 µM. For the same compound, the TGI (CCRF-CEM leukemia) was over 100 µM, the TGI (HCC-2998 colon) was over 100 µM and the TGI (SK-MEL-28 melanoma) was over 100 µM. The TGI (OVCAR-4 ovarian) was over 100 µM, the TGI (ACHN renal) was over 100 µM and the TGI (SN12C renal) was over 100 µM. The TGI (HOP-92 NSCLC) was over 100 µM, the TGI (U251 CNS) was over 100 µM and the TGI (MDA-MB-231 breast) was over 100 µM. It also gave a TGI (SNB-75 CNS) of 56.9 µM, a TGI (HOP-62 NSCLC) of over 100 µM and a TGI (OVCAR-5 ovarian) of over 100 µM. For the same compound, the TGI (K-562 leukemia) was over 100 µM, the TGI (UACC-257 melanoma) was over 100 µM and the TGI (NCI-H226 lung) was over 100 µM.
`Nc1ccc2c(c1)Cc1ccccc1-2` showed a TGI (EKVX NSCLC) of over 100 µM, a TGI (M14 melanoma) of over 100 µM and a TGI (SNB-19 CNS) of over 100 µM. The TGI (UO-31 renal) was over 100 µM, the TGI (RXF 393 renal) was over 100 µM and the TGI (HCT-15 colon) was over 100 µM. For the same compound, the TGI (SR leukemia) was over 100 µM, the TGI (SW-620 colon) was over 100 µM and the TGI (HT29 colon) was over 100 µM. For the same compound, the TGI (BT-549 breast) was over 100 µM, the TGI (TK-10 renal) was over 100 µM and the TGI (CAKI-1 renal) was over 100 µM. For the same compound, the TGI (HCT-116 colon) was over 100 µM, the TGI (MCF7 breast) was over 100 µM and the TGI (COLO 205 colon) was over 100 µM. The TGI (NCI/ADR-RES ovarian) was over 100 µM, the TGI (NCI-H460 lung) was over 100 µM and the TGI (SK-OV-3 ovarian) was over 100 µM. It also gave a TGI (PC-3 prostate) of over 100 µM, a TGI (OVCAR-3 ovarian) of over 100 µM and a TGI (MDA-N) of over 100 µM. The TGI (NCI-H23 lung) was over 100 µM, the TGI (OVCAR-8 ovarian) was over 100 µM and the TGI (IGROV1 ovarian) was over 100 µM. For the same compound, the TGI (786-0 renal) was over 100 µM, the TGI (MALME-3M melanoma) was over 100 µM and the TGI (SF-539 CNS) was over 100 µM. For the same compound, the TGI (UACC-62 melanoma) was over 100 µM, the TGI (A549 NSCLC) was over 100 µM and the TGI (A498 renal) was over 100 µM. It also gave a TGI (LOX IMVI melanoma) of over 100 µM, a TGI (SK-MEL-2 melanoma) of over 100 µM and a TGI (MOLT-4 leukemia) of over 100 µM. It also gave a TGI (HL-60(TB) leukemia) of over 100 µM, a TGI (KM12 colon) of over 100 µM and a TGI (SF-295 CNS) of over 100 µM. It also gave a TGI (SK-MEL-5 melanoma) of over 100 µM, a TGI (HS 578T breast) of over 100 µM and a TGI (MDA-MB-435) of over 100 µM. It also gave a TGI (CCRF-CEM leukemia) of over 100 µM, a TGI (HCC-2998 colon) of over 100 µM and a TGI (SK-MEL-28 melanoma) of over 100 µM. For the same compound, the TGI (OVCAR-4 ovarian) was over 100 µM, the TGI (ACHN renal) was over 100 µM and the TGI (SN12C renal) was over 100 µM. It also gave a TGI (HOP-92 NSCLC) of over 100 µM, a TGI (U251 CNS) of over 100 µM and a TGI (MDA-MB-231 breast) of over 100 µM. For the same compound, the TGI (SNB-75 CNS) was 94.3 µM, the TGI (HOP-62 NSCLC) was over 100 µM and the TGI (OVCAR-5 ovarian) was over 100 µM. The TGI (K-562 leukemia) was over 100 µM, the TGI (UACC-257 melanoma) was over 100 µM and the TGI (NCI-H226 lung) was over 100 µM.
